What is called IC50 is the concentration at which inhibition is half-maximal. As a reminder, the AUC is the area under the concentration-time curve, a measure of exposure. High values mean high exposure, low ones low exposure. By half-life is commonly meant the time in which the quantity being followed falls by half. Lower therefore signals rapid decline. What is called Cmax is the highest concentration seen after dosing. As a reminder, the Tmax is the time from dosing to the highest level. The term bioavailability denotes the share of a dose that reaches the circulation, judged against a reference dose that is usually intravenous.

One series concerns the target ATX (Homo sapiens (Human), UniProt Q13822). Briefly: ATX enzyme inhibition assay (Amplex UltraRed/choline oxidase/HRP, 16:0 Lyso PC substrate). The series is classed as biochemical. An outline of the steps: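 ATX (2× stock […]) preincubated with compound for 10 min at room temperature in assay buffer at pH 8.5 or 7.5. Reaction started with 16:0 Lyso PC, choline oxidase, HRP and Amplex UltraRed (2.5× working stock); fluorescence read kinetically (ex 550/em 590 nm) for 60 min.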

Series [1] deals with plasma LPA 18:1 and LPA 18:2. Nature of the series: Human plasma ex vivo assay (LPA 18:1 / 18:2 by LC-MS/MS). The series is classed as biochemical. As to conditions: 37° C., 2 hours. An outline of the steps: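 Human plasma incubated 2 h at 37° C with compound (8 points, 1:3 dilution, top 10 μM, 0.1% DMSO), then quenched with 0.1% FA containing LPA 17:0 internal standard.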
Series [2] in a line: Pharmacokinetic test in mice. The conditions noted are these: for AUC / C0 / half-life / clearance / Cmax / Tmax / bioavailability: male, ICR, mouse, plasma; for clearance: read-out: CL (mL/min/kg, IV). The format is in vivo, ICR mice. As for the experimental part:
Dosage preparation: The dosing solution was prepared on the day of dosing. 2 mg of compound was weighed and dissolved in 5% DMSO+10% solutol+85% saline to prepare a solution for intravenous administration at a concentration of 0.2 mg/mL. 2 mg of compound was weighed and dissolved in 25% PEG 200+75% (0.5% MC) to obtain a solution for oral administration at a concentration of 1 mg/mL.
Six healthy male naïve ICR mice, weighing 25 to 30 g, were divided into two groups (intravenous and oral groups) with three in each group, and administered in a single dose. After 3 days of acclimatization, the mice were fasted overnight (10 to 12 hours) the night before the experiment, but had free access to water during the experiment, and the diet was resumed 4 hours after administration. After intravenous and oral administration, the timer was started. Blood was collected via the orbital venous plexus at the scheduled time points (IV&PO: 0.083, 0.25, 0.5, 1, 2, 4, 6, 8, and 24 hours). 40 μL of whole blood was collected at each point and added to a 1.5 mL EP tube containing sodium heparin. The collected whole blood was vibrated twice on a vortex mixer, mixed well, placed on wet ice, and centrifuged at 8000 rpm for 5 minutes at 4° C. within 1 hour. The supernatant plasma was stored in a −80° C. freezer until processing for analysis.

[3] abbreviates: assay buffer pH 8.5, read-out: IC50 (nM) pH 8.5.
Where [4] appears, read: LPA 18:1, read-out: Human plasma ex vivo assay IC50 (18:1 LPA).
Setting [5] is: LPA 18:2, read-out: Human plasma ex vivo assay IC50 (18:2 LPA).
Setting [6] is: 5 mg/kg, PO - 5 mpk vs IV - 1 mpk.
The mark [7] stands for this setting: assay buffer pH 7.5, read-out: IC50 (nM) pH 7.5.

Read-outs that look alike come from different tables or passages of the source.

Turning to `CN(c1nc(-c2ccc(F)cc2)c(C#N)s1)c1c2c(nc3c(F)cc(N4CC5(CN(C(=O)[C@H]6CCOC6)C5)C4)cc13)[C@H](O)CC2` (single isomer, unassigned) [Example E5-a], at ATX (setting [3]), the IC50 is 22.7 nM. The IC50 in series [1] (setting [4]) is 294 nM. Besides, the IC50 in series [1] (setting [5]) was 306 nM. In addition, in series [2] (IV - 1 mpk), the AUCi was 1986 ng·h/mL; the “C0 (IV)” value is 1882 ng/mL; the “CL (mL/min/kg, IV)” value is given as 8.54 mL/min/kg; the T1/2 was 0.95 h. Further, in series [2] (PO - 10 mpk), the AUCi was found to be 44380 ng·h/mL; the “Cmax (PO)” value turned out to be 7763 ng/mL; the T1/2 worked out at 2.34 h; the “Tmax (hr, PO)” value is 0.5 h. For the same molecule, the “Bioavailability (%)” value in series [2] (PO - 10 mpk vs IV - 1 mpk) is on record as 223%.

On to `CN(c1nc(-c2ccc(F)cc2)c(C#N)s1)c1c2c(nc3c(F)cc(N4CC5(CN(C(=O)C(C)(C)O)C5)C4)cc13)[C@@H](O)CC2` (single isomer, unassigned) [Example E16-a], for which the IC50 on ATX (setting [3]) came to 20.1 nM. In addition, the IC50 in series [1] (setting [4]) was 381 nM. Further, the IC50 in series [1] (setting [5]) came to 383 nM. Further, in series [2] (1 mg/kg, IV - 1 mpk), the AUC stood at 5540 ng·h/mL, the C0 turned out to be 3550 ng/mL, the half-life is 1.87 h and the clearance amounted to 3.07 mL/min/kg. For the same molecule, in series [2] (5 mg/kg, PO - 5 mpk), the AUC was determined as 17000 ng·h/mL, the concentration peaked (Cmax) at 3010 ng/mL, the Tmax came to 0.33 h and the half-life is 2.22 h. This molecule displayed a bioavailability in series [2] (setting [6]) of 61.3%.

As to `CN(c1nc(-c2ccc(F)cc2)c(C#N)s1)c1c2c(nc3c(F)cc(N4CC5(CN(C(=O)[C@H]6CCOC6)C5)C4)cc13)CCC2` [Example C1], the IC50 on ATX (setting [7]) was 63.5 nM. Also, the IC50 on ATX (setting [3]) was found to be 36.3 nM. In series [1] (setting [4]), the IC50 was 521 nM. In series [1] (setting [5]), the IC50 is 438 nM. Also, in series [2] (IV - 1 mpk), the AUCi came out at 5701 ng·h/mL; the “C0 (IV)” value was found to be 3141 ng/mL; the “CL (mL/min/kg, IV)” value worked out at 2.92 mL/min/kg; the T1/2 was 2.15 h. Moreover, in series [2] (PO - 5 mpk), the AUCi stood at 7392 ng·h/mL; the “Cmax (PO)” value came out at 1903 ng/mL; the T1/2 is 2.08 h; the “Tmax (hr, PO)” value was found to be 1.0 h. Further, the “Bioavailability (%)” value in series [2] (PO - 5 mpk vs IV - 1 mpk) is given as 26%.

Regarding `CN(c1nc(-c2ccc(F)cc2)c(C#N)s1)c1c2c(nc3c(F)cc(N4CC5(CN(C(=O)[C@@H]6CCOC6)C5)C4)cc13)CC2` [Example C8], the IC50 at ATX (setting [7]) was 67.3 nM. Moreover, the IC50 on ATX (setting [3]) worked out at 27.5 nM. For the same molecule, in series [1] (setting [4]), the IC50 came out at 168 nM. Moreover, in series [1] (setting [5]), the IC50 was 191 nM. Also, in series [2] (1 mg/kg, IV - 1 mpk), the exposure (AUC) came to 2080 ng·h/mL, the C0 stood at 1800 ng/mL, the half-life was 1.23 h and the clearance amounted to 8 mL/min/kg. Further, in series [2] (5 mg/kg, PO - 5 mpk), the AUC was found to be 7940 ng·h/mL, the Cmax stood at 2920 ng/mL, the Tmax turned out to be 0.25 h and the half-life is 2.4 h. The molecule further showed a bioavailability in series [2] (setting [6]) of 76.2%.

On to `CN(c1nc(-c2ccc(F)cc2)c(C#N)s1)c1c2c(nc3ncc(N4CC5(CN(C(=O)[C@@H]6CCOC6)C5)C4)cc13)CC2` [Example C17], for which the 50% inhibitory concentration (IC50) on ATX (setting [3]) was found to be 25.9 nM. For the same molecule, the IC50 in series [1] (setting [4]) was found to be 318 nM. Also, the 50% inhibitory concentration (IC50) in series [1] (setting [5]) came to 318 nM. In series [2] (5 mg/kg, PO - 5 mpk), the AUC is 16900 ng·h/mL, the peak concentration (Cmax) stood at 4280 ng/mL, the Tmax is 0.5 h and the half-life was 2.13 h.

For the origin of these results see patent US20250051321A1, “TRICYCLIC DERIVATIVE AND PREPARATION METHOD THEREFOR AND APPLICATION THEREOF” (SHANGHAI JEMINCARE PHARMACEUTICAL CO., LTD., priority 2021, published 2025).
